Experimental data published in patent publication US20200129531A1, “USE OF WITHANIA SOMNIFERA EXTRACT TO PROTECT AGAINST AIR POLLUTION RELATED DISEASES” (DSM IP Assets B.V., priority 2017, published 2020).

Legend:
NQO1 = experiment: Endogenous Nrf2 activation assay using BEAS-2B cells: NQO1 mRNA expression; type: cell-based, human; details: 0.1% DMSO set to 1
Procedure: (§1) The human bronchial epithelial cell line BEAS-2B was from ATCC (American Type Culture Collection, Manassas, Va.) and cultured in Bronchial Epithelial cell Growth Medium (BEGM, Lonza, Wakersville, Md.) in CellIBIND® surface plastic flasks (Corning Inc., Corning, N.Y.). BEAS-2B cells were seeded in 6-well CellIBIND® surface culture plates (Corning Inc.) at 1×10^6 cells per well and incubated at 37° C. with 5% CO2 for 24 hours.
(§2) A 100 mM R-Sulforaphane stock solution was prepared in DMSO (ABCAM, Cat. No. ab141971, Lot GR303041-2). The R-Sulforaphane stock was diluted in DMSO to obtain the desired final concentrations. Withania somnifera extract (NIG-018911) stock solution was prepared in DMSO.
(§3) After 24 h, cells were treated with different concentrations of Withania somnifera extract (5 μg/ml, 10 μg/ml, 25 μg/ml), R-Sulforaphane (2 μM, 5 μM, 10 μM) or DMSO (0.1%) and incubated at 37° C. with 5% CO2 for 4 hrs or 24 hrs. Each treatment was done in triplicate.
(§4) RNA extraction, cDNA synthesis and TaqMan based real-time PCR: After 4 hrs and 24 hrs cells were harvested in RLT buffer, RNA isolation was done using the RNeasy Mini Kit from Qiagen (Cat. No. 74106). cDNA was prepared with 2500 ng total RNA using SuperScript™ First-Strand Synthesis System for RT-PCR (Invitrogen, Cat. No. 11904-018)
(§5) In a 20 μL PCR reaction, a total input of […] of cDNA was amplified in the ABI 7900 HT real-time PCR System (Applied Biosystems) using the TaqMan® Fast Advanced Master Mix (LifeTechnologies Cat. No. 4444557), 50 nM primers, and 100 nM probe (VIC-TAMRA-labeled) for the 18S rRNA internal control
(§6) and 300 nM primers and 100 nM probe (FAM-TAMRA-labeled) for the gene of interest human
(§7) The thermal cycling profile consisted of 2 min at 50° C. for Uracil-N-glycosylase activation, 95° C. for 20 seconds for polymerase activation followed by 40 cycles 95° C. for 1 second and primer annealing at 60° C. for 20 seconds.
(§8) Relative gene expression was performed by subtracting threshold cycles (CT) for ribosomal RNA from the CT of the targeted gene (ΔCT). Relative mRNA levels were then calculated as 2^−ΔΔCT, where ΔΔCT refers to the ΔCT of […].

HMOX = experiment: Endogenous Nrf2 activation assay using BEAS-2B cells: HMOX mRNA expression; type: cell-based, human; details: 0.1% DMSO set to 1
Procedure: as §1, §2, §3, §4, §5, §6, §7, §8

IL-6 [1] = experiment: IL-6 secretion of BEAS-2B cells treated with Diesel Particulate Matter; type: cell-based, human
Source text: (§9) The human bronchial epithelial cell line BEAS-2B was from ATCC (American Type Culture Collection, Manassas, Va.) and cultured in Bronchial Epithelial cell Growth Medium (BEGM, Lonza, Wakersville, Md.) in CellBIND® surface plastic flasks (Corning Inc., Corning, N.Y.). The adenocarcinomic human alveolar basal epithelial A549 cell line was obtained from ATCC and cultured in Kaighn's Modification of Ham's F-12 Medium (F-12K medium) (Life Technologies, USA), supplemented with 10% FBS (Sigma, Saint-Louis, Mo.). These cells were cultured at 37° C. in a humidified atmosphere containing 5% CO2.
(§10) BEAS-2B cells were seeded in 12-well CellBIND® surface culture plates (Corning Inc.) at 3 to 4×10^5 cells per well. A549 cells were seeded in 12-well plates at 2×10^5 cells per well.
(§11) Diesel Particulate Matter (Standard Reference Material SRM 1650b, National Institute of Standards & Technology, NIST, Gaithersburg, Md.) at 80 mg/ml DMSO (100%) were sonicated for 5 min and thereafter diluted 400 fold in medium. This dilution was twofold further diluted for the assay.
(§12) After 24 h, cells were treated with the diluted Diesel Particulate Matter at 100 μg/ml and in the presence of different concentrations of Withania somnifera extracts, other plant extracts, fractions and compounds as indicated. The final DSMO concentrations were 0.175%.
(§13) Untreated cells or cells treated with 0.175% DMSO were used as controls. After 24 h, cell supernatants were collected.
(§14) The concentrations of IL-6 and IL-8 in the supernatants were determined by Luminex kits (BIO-RAD Laboratories, Hercules, Calif.) and used in the LiquiChip Workstation IS 200 (Qiagen, Hilden, Germany). The data were evaluated with the LiquiChip Analyser software (Qiagen).

IL-6 [2] = experiment: IL-6 secretion of A549 cells treated with Diesel Particulate Matter; type: cell-based, human
Source text: as §9, §10, §11, §12, §13, §14

IL-8 = IL-8 secretion of A549 cells treated with Diesel Particulate Matter; type: cell-based, human
Source text: as §9, §10, §11, §12, §13, §14

MCP-1 = MCP-1 secretion of A549 cells treated with Diesel Particulate Matter; type: cell-based, human; details: for effect on PM-induced MCP-1 secretion (in words): A549
Source text: The human bronchial epithelial cell line BEAS-2B was from ATCC (American Type Culture Collection, Manassas, Va.) and cultured in Bronchial Epithelial cell Growth Medium (BEGM, Lonza, Wakersville, Md.) in CellBIND® surface plastic flasks (Corning Inc., Corning, N.Y.). The adenocarcinomic human alveolar basal epithelial A549 cell line was obtained from ATCC and cultured in Kaighn's Modification of Ham's F-12 Medium (F-12K medium) (Life Technologies, USA), supplemented with 10% FBS (Sigma, Saint-Louis, Mo.). These cells were cultured at 37° C. in a humidified atmosphere containing 5% CO2. BEAS-2B cells were seeded in 12-well CellBIND® surface culture plates (Corning Inc.) at 3 to 4×10^5 cells per well. A549 cells were seeded in 12-well plates at 2×10^5 cells per well. […] This dilution was twofold further diluted for the assay. After 24 h, cells were treated with the diluted Diesel Particulate Matter at 100 μg/ml and in the presence of different concentrations of Withania somnifera extracts, other plant extracts, fractions and compounds as indicated. The final DSMO concentrations were 0.175%. Untreated cells or cells treated with 0.175% DMSO were used as controls. After 24 h, cell supernatants were collected.

Nrf2 = experiment: Luciferase reporter assay using H411E-ARE8L cells (Nrf2 activation); details: for Nrf-2 activity, Normalized data: R-sulforaphane set to 1.0, DMSO 0
Procedure: Luciferase Reporter Assay Using H411E-ARE8L Cells:
The medium for H411E-ARE8L cells was Dulbecco's Modified Eagle Medium (DMEM) high glucose containing heat inactivated 10% fetal bovine Serum (FBS). The media was exchanged every two to three-days. The DMEM assay medium used charcoal treated FBS (DMEMct). The transactivation assay was performed in 96 well plates. The plates were seeded with approximately 40′000 cells per well in 100 μl DMEMct and incubated over night at 37° C. Then the test compounds were diluted in DMEDct and given to the cells as described below. The cells were incubated for at least further 16 h at 37° C. and 5% CO2. Cells were equilibrated to room temperature. Lysis of the cells was done by adding 100 μL lysis solution, Steady-Glo© luciferase buffer according to the manufacturer (Promega) containing 0.5 mM DTT per well and incubated for 10 min at room temperature with gentle shaking. The luminescence was measured within 2 hours after incubation on a luminometer (Mithras, Berthold Technologies).
The negative control were cells in 0.5% DMSO.
All extracts, fractions and pure compounds were tested for concentrations that induce toxicity. Non-toxic concentrations were then selected for treating cells as describes in the methods section.

PGE2 = PGE2 secretion of BEAS-2B cells treated with Diesel Particulate Matter; type: cell-based, human; details: Table 10; 10 μg/ml + PM 100 μg/ml, BEAS-2B, 24 h
Source text: as §9, §10, §11, §12, §13
Secreted PGE2 was determined by Enzyme Immuno Assay (EIA) (Cayman Chemicals, Ann Harbor, […].).

[3] = Table 3, 10 μg/ml + PM 100 μg/ml, 24 h
[4] = Table 5, 10 μg/ml + PM 100 μg/ml, A549, 24 h
[5] = Table 7, 10 μg/ml + PM 100 μg/ml, A549, 24 h
[6] = Table 9, 10 μg/ml + PM 100 μg/ml, A549, 24 h

C[S@@+]([O-])CCCCN=C=S [R-Sulforaphane, R-sulforaphane]
Relative mRNA expression level at 4 h (NQO1) (NQO1; 2 μM): 1.60
Relative mRNA expression level at 24 h (NQO1) (NQO1; 2 μM): 4.66
Relative mRNA expression level at 4 h (NQO1) (NQO1; 5 μM): 2.26
Relative mRNA expression level at 24 h (NQO1) (NQO1; 5 μM): 7.62
Relative mRNA expression level at 4 h (NQO1) (NQO1; 10 μM): 1.78
Relative mRNA expression level at 24 h (NQO1) (NQO1; 10 μM): 8.77
Relative mRNA expression level at 4 h (HMOX) (HMOX; 2 μM): 9.48
Relative mRNA expression level at 24 h (HMOX) (HMOX; 2 μM): 2.63
Relative mRNA expression level at 4 h (HMOX) (HMOX; 5 μM): 22.44
Relative mRNA expression level at 24 h (HMOX) (HMOX; 5 μM): 5.23
Relative mRNA expression level at 4 h (HMOX) (HMOX; 10 μM): 27.43
Relative mRNA expression level at 24 h (HMOX) (HMOX; 10 μM): 7.12
effect on PM-induced IL-6 secretion (in words) (IL-6 [1]; concentration not given): significantly reduced
reduction of PM-induced IL-6 secretion (IL-6 [2]; A549, concentration not given): about twofold
reduction of PM-induced cytokine secretion (IL-8 paragraph) (IL-8; A549, concentration not given): twofold
effect on PM-induced MCP-1 secretion (in words) (MCP-1): clear inhibition
Nrf-2 activity, Average (Nrf2; Conc. final 4.55 μg/ml): 29384 relative units of luciferase fluorescence
Nrf-2 activity, Normalized data (Nrf2; Conc. final 4.55 μg/ml): 1.0000

CC1=C(C)C(=O)O[C@@H]([C@](C)(O)[C@H]2CC[C@H]3[C@@H]4[C@@H]5O[C@@H]5[C@@]5(O)CC=CC(=O)[C@]5(C)[C@H]4CC[C@]23C)C1 [Withanolide A, withanolide A]
IL-6 (IL-6 [1]; [3]): 32.8 pg/mL
IL-6 % of PM + DMSO (IL-6 [1]; [3]): 131%
effect on PM-induced IL-6 secretion (in words) (IL-6 [2]; A549): decrease
IL-6 (IL-6 [2]; [4]): 15.2 pg/mL
IL-6 % of PM + DMSO (IL-6 [2]; [4]): 120%
effect on IL-8 secretion (in words) (IL-8; A549, PM-induced): no effect
IL-8 (IL-8; [5]): 313.7 pg/mL
IL-8 % of PM + DMSO (IL-8; [5]): 103%
effect on PM-induced MCP-1 secretion (in words) (MCP-1): low, but non-significant decrease
MCP-1 (MCP-1; [6]): 790.7 pg/mL
MCP-1 % of PM + DMSO (MCP-1; [6]): 91%
PGE2 (PGE2): 34.7 pg/mL
PGE2 % of PM + DMSO (PGE2): 91%
Nrf-2 activity, Average (Nrf2; Conc. final 22.73 μg/ml): 4677 relative units of luciferase fluorescence
Nrf-2 activity, Normalized data (Nrf2; Conc. final 22.73 μg/ml): 0.0629
